Results taken from patent publication US11434246B2, “EP4 antagonists” (Eisai R&D Management Co., Ltd., priority 2015, dated 2022).

molecular target: EP4 (Homo sapiens, UniProt P35408); test: EP4 Antagonism by CRE-PLAP Reporter Assay (SE302 cells, PGE2-stimulated); format: cell-based; set-up: HEK293 cells express endogenous EP4; endogenous in cells; host or cells: SE302 (HEK293 clone with CRE-PLAP reporter); conditions: SE302 (HEK293) cells, 3 ng/mL PGE2, overnight; single or multiple assay average values
In short: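 HEK293-derived SE302 cells with endogenous EP4 and CRE-driven secreted PLAP, in serum-free medium with 0.1% BSA, stimulated overnight with 3 ng/mL PGE2 plus compound. Supernatant PLAP read by luminescence (pH 11 carbonate buffer, 2 h). IC50 from % of control, normalized to DMSO with and without PGE2.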

Sequence of EP4 (P35408 whole entry): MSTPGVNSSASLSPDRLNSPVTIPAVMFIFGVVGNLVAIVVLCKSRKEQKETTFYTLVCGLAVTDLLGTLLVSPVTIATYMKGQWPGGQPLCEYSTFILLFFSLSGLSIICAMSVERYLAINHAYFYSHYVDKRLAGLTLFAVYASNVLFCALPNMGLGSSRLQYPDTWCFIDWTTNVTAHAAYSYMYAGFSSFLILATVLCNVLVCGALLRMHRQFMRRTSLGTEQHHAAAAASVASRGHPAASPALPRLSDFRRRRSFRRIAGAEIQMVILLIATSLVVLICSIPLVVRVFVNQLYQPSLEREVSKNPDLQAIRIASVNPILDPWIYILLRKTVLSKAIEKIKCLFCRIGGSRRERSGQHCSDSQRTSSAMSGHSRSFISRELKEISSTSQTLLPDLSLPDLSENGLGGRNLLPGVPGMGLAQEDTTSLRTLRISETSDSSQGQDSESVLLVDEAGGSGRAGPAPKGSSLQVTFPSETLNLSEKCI

Point of comparison: `C[C@H](NC(=O)c1c(C(F)(F)CO)nn2c1N(Cc1cccc(C(F)(F)F)c1)CC2)c1ccc(C(=O)O)cc1` [Compound 100, (S)-4-(1-(6-(1,1-Difluoro-2-hydroxyethyl)-1-(3-(trifluoromethyl)benzyl)-2,3-dihydro-1H-imidazo[1,2-b]pyrazole-7-carboxamido)ethyl)benzoic Acid], IC50 8.96 nM. Against it:
- C[C@H](NC(=O)c1c(C(F)(F)F)nn2c1N(Cc1ccc(Cl)c(Cl)c1)CC2)c1ccc(C(=O)O)cc1 [Compound 13, (S)-4-(1-(1-(3,4-dichlorobenzyl)-6-(trifluoromethyl)-2,3-dihydro-1H-imidazo[1,2-b]pyrazole-7-carboxamido)ethyl)benzoic Acid] — 20-fold lower, 0.44 nM
- C[C@H](NC(=O)c1c(C(F)(F)F)nn2c1N(Cc1cccc(CF)c1)CC2)c1ccc(C(=O)O)cc1 [Compound 67, (S)-4-(1-(1-(3-(fluoromethyl)benzyl)-6-(trifluoromethyl)-2,3-dihydro-1H-imidazo[1,2-b]pyrazole-7-carboxamido)ethyl)benzoic Acid] — 7.5-fold lower, 1.2 nM
- CCc1ccc(CN2CCn3nc(C(F)(F)F)c(C(=O)N[C@@H](C)c4ccc(C(=O)O)cc4)c32)cc1 [Compound 20, (S)-4-(1-(1-(4-ethylbenzyl)-6-(trifluoromethyl)-2,3-dihydro-1H-imidazo[1,2-b]pyrazole-7-carboxamido)ethyl)benzoic Acid] — 4-fold lower, 2.23 nM
- C[C@H](NC(=O)c1c(C(F)(F)F)nn2c1N(Cc1ccc(C(F)(F)F)cc1)CC2)c1ccc(C(=O)O)cc1F [Compound 22, (S)-3-fluoro-4-(1-(6-(trifluoromethyl)-1-(4-(trifluoromethyl)benzyl)-2,3-dihydro-1H-imidazo[1,2-b]pyrazole-7-carboxamido)ethyl)benzoic Acid] — 4.7-fold lower, 1.91 nM
- C[C@H](NC(=O)c1c(C(F)(F)F)nn2c1N(Cc1cccc(Cl)c1)CC2)c1ccc(C(=O)O)cc1 [Compound 12, (S)-4-(1-(1-(3-chlorobenzyl)-6-(trifluoromethyl)-2,3-dihydro-1H-imidazo[1,2-b]pyrazole-7-carboxamido)ethyl)benzoic Acid] — 4-fold lower, 2.23 nM
- C[C@H](NC(=O)c1c(C(F)(F)F)nn2c1N(Cc1cc(O)cc(C(F)(F)F)c1)CC2)c1ccc(C(=O)O)cc1 [Compound 77, (S)-4-(1-(1-(3-hydroxy-5-(trifluoromethyl)benzyl)-6-(trifluoromethyl)-2,3-dihydro-1H-imidazo[1,2-b]pyrazole-7-carboxamido)ethyl)benzoic Acid] — 49-fold lower, 0.182 nM
- Cc1ccc(CN2CCn3nc(C(F)(F)F)c(C(=O)N[C@@H](C)c4ccc(C(=O)O)cc4)c32)cc1 [Compound 17, (S)-4-(1-(1-(4-methylbenzyl)-6-(trifluoromethyl)-2,3-dihydro-1H-imidazo[1,2-b]pyrazole-7-carboxamido)ethyl)benzoic Acid] — 5.4-fold lower, 1.65 nM
- COc1cccc(CN2CCn3nc(C(F)(F)F)c(C(=O)N[C@@H](C)c4ccc(C(=O)O)cc4)c32)c1 [Compound 9, (S)-4-(1-(1-(3-methoxybenzyl)-6-(trifluoromethyl)-2,3-dihydro-1H-imidazo[1,2-b]pyrazole-7-carboxamido)ethyl)benzoic Acid] — 6.4-fold lower, 1.41 nM
- C[C@H](NC(=O)c1c(C(F)(F)F)nn2c1N(Cc1cccc(C(F)(F)F)c1)CC2)c1ccc(C(=O)NS(C)(=O)=O)cc1 [Compound 55, (S)—N-(1-(4-((methylsulfonyl)carbamoyl)phenyl)ethyl)-6-(trifluoromethyl)-1-(3-(trifluoromethyl)benzyl)-2,3-dihydro-1H-imidazo[1,2-b]pyrazole-7-carboxamide] — 4.4-fold higher, 39.3 nM
- C[C@H](NC(=O)c1c(C(F)(F)F)nn2c1N(Cc1cc(Cl)cc(Cl)c1)CC2)c1ccc(C(=O)O)cc1 [Compound 7, (S)-4-(1-(1-(3,5-dichlorobenzyl)-6-(trifluoromethyl)-2,3-dihydro-1H-imidazo[1,2-b]pyrazole-7-carboxamido)ethyl)benzoic Acid] — 28-fold lower, 0.32 nM
- C[C@H](NC(=O)c1c(C(F)(F)F)nn2c1N(CC1CCC(CF)CC1)CC2)c1ccc(C(=O)O)cc1 (stereo partly drawn) [Compound 78, (S)-4-(1-(1-((4-(fluoromethyl)cyclohexyl)methyl)-6-(trifluoromethyl)-2,3-dihydro-1H-imidazo[1,2-b]pyrazole-7-carboxamido)ethyl)benzoic acid] — 7-fold higher, 63 nM
- C[C@H](NC(=O)c1c(C(F)(F)F)nn2c1N(Cc1ccc(N(C)C)cc1)CC2)c1ccc(C(=O)O)cc1 [Compound 88, (S)-4-(1-(1-(4-(dimethylamino)benzyl)-6-(trifluoromethyl)-2,3-dihydro-1H-imidazo[1,2-b]pyrazole-7-carboxamido)ethyl)benzoic Acid] — 2.1-fold higher, 18.5 nM
- C[C@H](NC(=O)c1c(C(F)(F)F)nn2c1N(c1ccc(Cl)cc1)CC2)c1ccc(C(=O)O)cc1 [Compound 50, (S)-4-(1-(1-(4-chlorophenyl)-6-(trifluoromethyl)-2,3-dihydro-1H-imidazo[1,2-b]pyrazole-7-carboxamido)ethyl)benzoic Acid] — 10-fold higher, 91.3 nM
- C[C@H](NC(=O)c1c(C(F)(F)F)nn2c1N(Cc1cccc(F)c1)CC2)c1ccc(C(=O)O)cc1 [Compound 15, (S)-4-(1-(1-(3-fluorobenzyl)-6-(trifluoromethyl)-2,3-dihydro-1H-imidazo[1,2-b]pyrazole-7-carboxamido)ethyl)benzoic Acid] — 5.4-fold lower, 1.65 nM
- CCc1nn2c(c1C(=O)N[C@@H](C)c1ccc(C(=O)O)cc1)N(Cc1cccc(C(F)(F)F)c1)CC2 [Compound 59, (S)-4-(1-(6-ethyl-1-(3-(trifluoromethyl)benzyl)-2,3-dihydro-1H-imidazo[1,2-b]pyrazole-7-carboxamido)ethyl)benzoic acid] — 13-fold lower, 0.68 nM
- C[C@H](NC(=O)c1c(C(F)(F)F)nn2c1N(Cc1ccc(C(F)(F)F)cc1)CCC2)c1ccc(C(=O)O)cc1 [Compound 45, (S)-4-(1-(2-(trifluoromethyl)-4-(4-(trifluoromethyl)benzyl)-4,5,6,7-tetrahydropyrazolo[1,5-a]pyrimidine-3-carboxamido)ethyl)benzoic Acid] — 7.8-fold lower, 1.15 nM
- C[C@H](NC(=O)c1c(C(F)(F)F)nn2c1N(Cc1ccc(N)cc1)CC2)c1ccc(C(=O)O)cc1 [Compound 73, (S)-4-(1-(1-(4-aminobenzyl)-6-(trifluoromethyl)-2,3-dihydro-1H-imidazo[1,2-b]pyrazole-7-carboxamido)ethyl)benzoic Acid] — 6-fold lower, 1.49 nM
- Cc1ccccc1CN1CCn2nc(C(F)(F)F)c(C(=O)N[C@@H](C)c3ccc(C(=O)O)cc3)c21 [Compound 19, (S)-4-(1-(1-(2-methylbenzyl)-6-(trifluoromethyl)-2,3-dihydro-1H-imidazo[1,2-b]pyrazole-7-carboxamido)ethyl)benzoic Acid] — 2.5-fold lower, 3.6 nM
- Cc1nn2c(c1C(=O)N[C@@H](C)c1ccc(C(=O)O)cc1)N([C@H](C)c1ccc(C(F)(F)F)cc1)CC2 [Compound 35, 4-((S)-1-(6-methyl-1-((R)-1-(4-(trifluoromethyl)phenyl)ethyl)-2,3-dihydro-1H-imidazo[1,2-b]pyrazole-7-carboxamido)ethyl)benzoic Acid] — within 1.5-fold, 11.1 nM
